The target of series [1] is T1, recombinant human Muscarinic M1 receptor (Homo sapiens, UniProt P11229).
T1 sequence (P11229 1-460): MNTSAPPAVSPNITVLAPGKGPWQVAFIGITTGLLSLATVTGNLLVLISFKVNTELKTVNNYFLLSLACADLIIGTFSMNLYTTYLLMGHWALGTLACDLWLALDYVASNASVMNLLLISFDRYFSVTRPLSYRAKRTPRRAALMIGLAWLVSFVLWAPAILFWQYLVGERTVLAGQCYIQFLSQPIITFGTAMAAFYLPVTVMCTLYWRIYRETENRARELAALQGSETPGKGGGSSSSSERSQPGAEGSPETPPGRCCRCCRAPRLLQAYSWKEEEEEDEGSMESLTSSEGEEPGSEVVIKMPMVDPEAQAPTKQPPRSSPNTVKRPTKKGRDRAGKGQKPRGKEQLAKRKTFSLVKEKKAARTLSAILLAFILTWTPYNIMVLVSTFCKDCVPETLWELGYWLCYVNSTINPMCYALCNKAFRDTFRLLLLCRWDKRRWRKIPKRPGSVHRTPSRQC
The series can be described thus: Allosteric potency EC50 for muscarinic M1 receptor, CHO pCRE-Luc reporter cell-based assay with EC20 of acetylcholine. Conditions: CHO cells, luciferase activity, in presence of EC20 of acetylcholine, 4 hours. The protocol: Determination of Allosteric Potency EC50 Values for Muscarinic M1 Receptor
A stable CHO cell line expressing recombinant human Muscarinic M1 receptor and pCRE-Luc reporter system was used for cell-based assay. The assay offers a non-radioactive based approach to determine binding of a compound to GPCRs. In this specific assay, the level of intracellular cyclic AMP which is modulated by activation or inhibition of the receptor is measured. The recombinant cells harbor luciferase reporter gene under the control of cyclic AMP response element.
The above cells were grown in 96 well clear bottom white plates in Hams F12 medium containing 10% fetal bovine serum (FBS). Prior to the addition of compounds or standard agonist, cells were serum starved overnight. Increasing concentrations of test compounds were added along with EC20 of acetylcholine in OptiMEM medium to the cells. The incubation was continued at 37° C. in CO2 incubator for 4 hours. Medium was removed and cells were washed with phosphate buffered saline. The cells were lysed and luciferase activity was measured in a Luminometer. Luminescence units were plotted against the compound concentrations using Graphpad software.

A short description of series [2]: Rodent pharmacokinetic study. The series is classed as in vivo, Male Wistar rats. Conditions: male, Wistar, plasma, rat; for bioavailability: oral 3 mg/kg vs intravenous 1 mg/kg, read-out: F (%) Bioavailability. The protocol:
Rodent Pharmacokinetic Study
Male Wistar rats (260±50 grams) were used as experimental animals. Animals were housed individually in polypropylene cage. Two days prior to study, male Wistar rats were anesthetized with isoflurane for surgical placement of jugular vein catheter. Rats were randomly divided for oral (3 mg/kg) and intravenous (1 mg/kg) dosing (n=3/group) and fasted overnight before oral dosing (p.o.). However, rats allocated to intravenous dosing food and water was provided ad libitum.
At pre-determined point, blood was collected through jugular vein and replenished with an equivalent volume of normal saline. Collected blood was transferred into a labeled eppendorf tube containing 10 μL of heparin as an anticoagulant. Typically blood samples were collected at following time points: 0.08, 0.25, 0.5, 1, 2, 4, 6, 8, and 24 h post dose. Blood was centrifuged at 4000 rpm for 10 minutes. Plasma was separated and stored frozen at −80° C. until analysis. The concentrations of the test compounds were quantified in plasma by qualified LC-MS/MS method using suitable extraction technique. The test compounds were quantified in the calibration range around 1-1000 ng/mL in plasma. Study samples were analyzed using calibration samples in the batch and quality control samples spread across the batch.
Pharmacokinetic parameters Cmax, AUCt, T1/2, Clearance and Bioavailability (F) were calculated by non-compartmental model using standard non-compartmental model by using Phoenix WinNonlin 6.0.4 version Software package.

A short description of series [3]: Rodent brain penetration study. The series is classed as in vivo, Male Wistar rats. The settings on record: male, Wistar, brain and plasma, po; rat, 3 mg/kg p.o., brain-plasma ratio; read-out: Single dose Rat Brain Penetration (Cb/Cp) at 3 mg/kg, p.o. The procedure:
Rodent Brain Penetration Study
Male Wistar rats (260±40 grams) were used as experimental animals. Three animals were housed in each cage. Animals were given water and food ad libitum throughout the experiment and maintained on a 12 h light/dark cycle.
Brain penetration was determined in discrete manner in rats. One day prior to dosing day, male Wistar rats were acclimatized and randomly grouped according to their weight. At each time point (0.50, 1 and 2 h) n=3 animals were used.
The test compounds were suitably preformulated and administered orally at (free base equivalent) 3 mg/kg. Blood samples were removed via cardiac puncture by using isoflurane anesthesia. The animals were sacrificed to collect brain tissue. Plasma was separated and brain samples were homogenized and stored frozen at −20° C. until analysis. The concentrations of the test compounds in plasma and brain were determined using LC-MS/MS method.
The test compounds were quantified in plasma and brain homogenate by qualified LC-MS/MS method using suitable extraction technique. The test compounds were quantified in the calibration range of 1-500 ng/mL in plasma and brain homogenate. Study samples were analyzed using calibration samples in the batch and quality control samples spread across the batch. Extent of brain-plasma ratio (Cb/Cp) was calculated.

The test system of series [4] is Male Wistar rats. The series can be described thus: Object recognition task model. The series is classed as in vivo. Conditions: rat, 3 mg/kg, p.o. The protocol: Object Recognition Task Model
Male Wistar rats (8-10 weeks old) were used as experimental animals. Four animals were housed in each cage. Animals were kept on 20% food deprivation from a day prior to experimentation. Water was provided ad libitum throughout the experiment. Animals were maintained on a 12 h light/dark cycle in temperature and humidity controlled room. The experiment was carried out in a circular or square arena made up of acrylic. Rats were habituated to individual arenas for up to 1 hour in the absence of any objects on day 1.
One group of 12 rats received vehicle and another set of animals received test compounds, before familiar (T1) and choice (T2) trials. During the familiarization phase, (T1), the rats were placed individually in the arena for 3 minutes, in which two identical objects (a1 and a2) were positioned 10 cm from the wall. 24 h after T1, trial for long-term memory test was performed. The same rats were placed in the same arena as they were placed in T1 trial. During the choice phase (T2) rats were allowed to explore the arena for 3 minutes in presence of a copy of familiar object (a3) and one novel object (b). During the T1 and T2 trial, explorations of each object (defined as sniffing, licking, chewing or having moving vibrissae whilst directing the nose towards the object at a distance of less than 1 cm) were recorded using stopwatch. • T1 is the total time spent exploring the familiar objects (a1+a2). • T2 is the total time spent exploring the familiar object and novel object (a3+b).
The object recognition test was performed as described in Behav. Brain Res., 1988, 31, 47-59.

The test system of series [5] is Male Wistar rats. As to the kind of experiment: Object recognition task model (combination study with donepezil). The series is classed as in vivo. Conditions: rat, combination of sub efficacious doses with donepezil (FIG. 1). The protocol: Object Recognition Task Model (Combination Study)
The cognition enhancing properties of compounds of this invention were estimated by using this model.
Male Wistar rats (8-10 weeks old) were used as experimental animals. Four animals were housed in each cage. Animals were kept on 20% food deprivation from a day prior to experimentation. Water was provided ad libitum throughout the experiment. Animals were maintained on a 12 h light/dark cycle in temperature and humidity controlled room. The experiment was carried out in an open field made up of acrylic. Rats were habituated to individual arenas (open field) for 20 minutes in the absence of any objects on day 1. […]
The same rats were placed in the same arena as they were placed in T1 trial. […] During the T1 and T2 trial, explorations of each object (defined as sniffing, licking, chewing or having moving vibrissae whilst directing the nose towards the object at a distance of less than 1 cm) were recorded using stopwatch. • T1 is the total time spent exploring the familiar objects (a1+a2). • T2 is the total time spent exploring the familiar object and novel object (a3+b). • Discriminative index=Time spent with novel object/(time spent with novel and familiar object). […]

A further series relates to Male Swiss mice. As to the kind of experiment: Effect on colonic transit. Format: in vivo. Conditions: doses of 1 and 3 mg/kg, p.o., carmine dye, 3 hours after dye. The procedure:
Effect on Colonic Transit
Male Swiss mice of body weight ˜20-30 g were fasted for 16 hours with free access to water prior to the experiment. Mice were administrated example 1 or vehicle, 30 min after administration of 0.5 ml of carmine dye solution. Mice were sacrificed 3 hours after dye administration and the distance traveled by the dye from proximal colon was measured. Colonic transit was expressed as % colonic transit=100×(length of colon in which carmine moved/total length of colon).

As usually defined, the EC50 is the concentration at which the effect is half-maximal. A word on the AUC(0-t): it is the area under the concentration-time curve up to a stated or last time point. By clearance is commonly meant a measure of how efficiently the substance is removed, as volume per time. As a reminder, the half-life is the time in which the quantity being followed falls by half. Higher therefore signals slow decline. A word on the bioavailability: it is the share of a dose that reaches the circulation, judged against a reference dose that is usually intravenous. A word on the Cmax: it is the maximum level reached in the sampled fluid or tissue. Regarding `O=C(N[C@H]1CCCC[C@@H]1O)c1cc(Cc2ccccc2)c2cccn2n1` [Example 4, N-[(1S,2S)-2-Hydroxycyclohexyl]-4-benzyl-pyrrolo[1,2-b]pyridazine-2-carboxamide], in series [1], the EC50 worked out at 1850 nM. In series [2] (intravenous (bolus), 1 mg/kg), this molecule showed an AUC(0-t) of 677 ± 194 ng·h/mL, a clearance of 24 ± 6 mL/min/kg and a half-life of 0.7 ± 0.1 h. In addition, in series [2], the bioavailability stood at 13 ± 1%. Further, in series [2] (oral (gavage), 3 mg/kg), the AUC(0-t) is 259 ± 22 ng·h/mL, the concentration peaked (Cmax) at 113 ± 11 ng/mL and the half-life was 2.5 ± 0.5 h. In addition, the Kp in series [3] came out at 1.42 ± 0.1. For the same molecule, in the series with Male Wistar rats [4], the Inference result is on record as “Active”. In the series with Male Wistar rats [4] (choice trial 24 h after T1), the “Exploration time mean ± S.E.M, Familiar object” value came to 16.24 ± 1.09 s and the “Exploration time mean ± S.E.M, Novel object” value stood at 25.9 ± 2.54 s. The “Procognitive effect in object recognition task” value in the series on Male Wistar rats [5] is “Procognitive effects were observed”.

For `Cn1cc(-c2ccc(Cc3cc(C(=O)N[C@H]4CCOC[C@@H]4O)nn4cccc34)cc2)cn1` (stereo in doubt) [Example 38, N-[3-Hydroxy-tetrahydropyran-4-yl] 4-[4-(1-methyl-1H-pyrazol-4-yl)-benzyl]-pyrrolo[1,2-b]pyridazine-2-carboxamide], the EC50 in series [1] is 692 nM. In series [2] (intravenous (bolus), 1 mg/kg), this molecule gave an AUC(0-t) of 7240 ± 890 ng·h/mL, a clearance of 2.31 ± 0.29 mL/min/kg and a half-life of 3.42 ± 0.29 h. In addition, the bioavailability in series [2] stood at 60 ± 4%. Also, in series [2] (oral (gavage), 3 mg/kg), the AUC(0-t) is 13000 ± 954 ng·h/mL, the highest level (Cmax) was 1860 ± 185 ng/mL and the half-life was 3.74 ± 0.15 h. Besides, in series [3], the Kp is 0.15 ± 0.02. Moreover, the Colonic transit result in the series on Male Swiss mice is recorded as “increased the colonic transit”.

The record behind these values is US12122779B2, “Pyrrolo-pyridazine derivatives as muscarinic M1 receptor positive allosteric modulators” (SUVEN LIFE SCIENCES LIMITED, priority 2018, dated 2024).
